From patent US20070015823A1, “Ambruticin VS compounds” (priority 2004, published 2007)
Converted amounts (≈) assume the structure as drawn. Where two headings read alike, the source gives them in different places.

Columns and labels:
A. fumigatus ATCC 204305 = assay: Broth microdilution antifungal susceptibility, NCCLS M38-A; assay type: cell-based, Aspergillus fumigatus; conditions: minimal concentration inhibiting >95% growth, average of at least two assays (except I-l and I-x)
C. immitis = assay: microbe, parasite or virus in culture; assay type: cell-based, Coccidioides immitis; conditions: Coccidioides immitis
Cryptococcus neoformans = assay: Broth microdilution antifungal susceptibility, NCCLS M38-A; conditions: for MIC: Cryptococcus neoformans; for MIC C. neoformans 97-14: strain 97-14; for MIC C. neoformans 97-14 / MIC C. neoformans 11239 / MIC C. neoformans 11240: 50% growth inhibition, range = minimum and maximum of multiple assays; for MIC C. neoformans 11239: strain 11239; for MIC C. neoformans 11240: strain 11240
C. posadasii = assay: microbe, parasite or virus in culture; assay type: cell-based, Coccidioides posadasii; conditions: Coccidioides posadasii
S. apiospermum = assay: Broth microdilution antifungal susceptibility, NCCLS M38-A; assay type: cell-based, Scedosporium apiospermum; conditions: for MIC: Scedosporium apiospermum, 50% growth inhibition, range = minimum and maximum of multiple assays
A. flavus ATCC 204304 = assay: as above; assay type: cell-based, Aspergillus flavus; conditions: minimal concentration inhibiting >95% growth, average of at least two assays (except I-l and I-x)
Blastomyces dermatitidis = assay: as above; assay type: cell-based; conditions: for MIC: Blastomyces dermatitidis
Fusarium solani = assay: as above; assay type: cell-based; conditions: strain 96-1, 50% growth inhibition, range = minimum and maximum of multiple assays
Candida albicans = conditions: 50% growth inhibition, range = minimum and maximum of multiple assays; for MIC C. albicans 24433: strain 24433; for MIC C. albicans 90028: strain 90028
Histoplasma capsulatum = assay type: cell-based
Epidermophyton floccosum = assay: Dermatophyte broth microdilution, NCCLS M38-A; assay type: cell-based
[1] = tested on: Trichophyton mentagrophytes; assay: Dermatophyte broth microdilution, NCCLS M38-A; assay type: cell-based
[2] = tested on: Trichophyton interdigitale; assay: Dermatophyte broth microdilution, NCCLS M38-A; assay type: cell-based
Trichophyton rubrum = assay: Dermatophyte broth microdilution, NCCLS M38-A; assay type: cell-based
Microsporum canis = assay: Dermatophyte broth microdilution, NCCLS M38-A; assay type: cell-based
Microsporum gypseum = assay: Dermatophyte broth microdilution, NCCLS M38-A; assay type: cell-based

Compound: CC[C@H]1O[C@@H](C(C)C[C@H](C)/C=C/[C@H]2[C@@H](C)[C@@H]2/C=C/[C@@H]2O[C@H](CC(=O)O)CC(O)[C@H]2O)CC=C1C (stereo partly drawn) [Ambruticin S, (5S,6R)-5,6-dihydroxypoly-angioic acid, reference compound]
- MIC (A. fumigatus ATCC 204305; Aspergillus fumigatus, ATCC204305, read-out: MIC0 A. fumigatus ATCC 204305): 29.3 mg/L (≈ 61.5 µM)
- MIC (C. immitis; read-out: MIC C. immitis RMS 2281): 2 mg/L (≈ 4.2 µM)
- MIC (C. immitis; read-out: MIC C. immitis RS): 2 mg/L (≈ 4.2 µM)
- MIC (C. immitis; read-out: MIC C. immitis S46): 4 mg/L (≈ 8.39 µM)
- MIC (Cryptococcus neoformans; read-out: MIC C. neoformans 97-14): 8 mg/L (≈ 16.8 µM)
- MIC (Cryptococcus neoformans; read-out: MIC C. neoformans 11239): 4 mg/L (≈ 8.39 µM)
- MIC (Cryptococcus neoformans; read-out: MIC C. neoformans 11240): 16 mg/L (≈ 33.6 µM)
- MIC (C. posadasii; read-out: MIC C. posadasii C735): 4 mg/L (≈ 8.39 µM)
- MIC (C. posadasii; read-out: MIC C. posadasii RMSCC 2127): 2 mg/L (≈ 4.2 µM)
- MIC (C. posadasii; read-out: MIC C. posadasii Silveria): 2 mg/L (≈ 4.2 µM)
- MIC (S. apiospermum; strain 94-54, read-out: MIC S. apiospermum 94-54): > 32 mg/L
- MIC (S. apiospermum; strain 98-38, read-out: MIC S. apiospermum 98-38): > 32 mg/L
- MIC (S. apiospermum; strain 98-89, read-out: MIC S. apiospermum 98-89): 4 mg/L (≈ 8.39 µM)
- MIC (A. flavus ATCC 204304; Aspergillus flavus, ATCC204304, read-out: MIC0 A. flavus ATCC 204304): 28.4 mg/L (≈ 59.7 µM)
- MIC (Blastomyces dermatitidis; read-out: MIC0 Blastomyces dermatitidis R-35629): 0.125 mg/L (≈ 0.262 µM)
- MIC (Blastomyces dermatitidis; strain 04-2167, >95% growth inhibition, read-out: MIC0 Blastomyces dermatitidis 04-2167): 0.125 mg/L (≈ 0.262 µM)
- MIC (Blastomyces dermatitidis; strain 04-2508, >95% growth inhibition, read-out: MIC0 Blastomyces dermatitidis 04-2508): 0.25 mg/L (≈ 0.524 µM)
- MIC (Blastomyces dermatitidis; strain 04-2915, >95% growth inhibition, read-out: MIC0 Blastomyces dermatitidis 04-2915): 1 mg/L (≈ 2.1 µM)
- MIC (Blastomyces dermatitidis; strain 05-106, >95% growth inhibition, read-out: MIC0 Blastomyces dermatitidis 05-106): 0.5 mg/L (≈ 1.05 µM)
- MIC (Blastomyces dermatitidis; strain 05-186, >95% growth inhibition, read-out: MIC0 Blastomyces dermatitidis 05-186): 0.125 mg/L (≈ 0.262 µM)
- MIC (Blastomyces dermatitidis; strain 05-1391, >95% growth inhibition, read-out: MIC0 Blastomyces dermatitidis 05-1391): 0.06 mg/L (≈ 0.126 µM)
- MIC (Blastomyces dermatitidis; strain 05-1707, >95% growth inhibition, read-out: MIC0 Blastomyces dermatitidis 05-1707): ≤ 0.015 mg/L
- MIC (Blastomyces dermatitidis; strain 05-1820, >95% growth inhibition, read-out: MIC0 Blastomyces dermatitidis 05-1820): 0.125 mg/L (≈ 0.262 µM)
- MIC (Blastomyces dermatitidis; strain 05-1829, >95% growth inhibition, read-out: MIC0 Blastomyces dermatitidis 05-1829): 0.25 mg/L (≈ 0.524 µM)
- MIC (Blastomyces dermatitidis; strain 05-2020, >95% growth inhibition, read-out: MIC0 Blastomyces dermatitidis 05-2020): 0.06 mg/L (≈ 0.126 µM)
- MIC (Blastomyces dermatitidis; strain R-3529, >95% growth inhibition, read-out: MIC0 Blastomyces dermatitidis R-3529): 0.06 mg/L (≈ 0.126 µM)
- MIC (Fusarium solani; Fusarium solani, read-out: MIC F. solani 96-1): > 32 mg/L

Compound: CC[C@H]1O[C@@H](/C(C)=C/[C@H](C)/C=C/[C@H]2[C@@H](C)[C@@H]2/C=C/[C@@H]2O[C@H](CCO)C[C@H](N(C)C)[C@H]2O)CC=C1C [I-ff, (5S,6R)-5-(dimethylamino)polyangi-1,6-diol]
- MIC0 A. fumigatus ATCC 204305 (A. fumigatus ATCC 204305): 2.07 µg/mL
- MIC C. albicans 24433 (Candida albicans): 32 mg/L (≈ 65.6 µM)
- MIC C. albicans 90028 (Candida albicans): 32 mg/L (≈ 65.6 µM)
- MIC H. capsulatum G217B (Histoplasma capsulatum): <0.19 mg/L
- MIC H. capsulatum GS20 (Histoplasma capsulatum): <0.19 mg/L
- MIC S. apiospermum 94-54 (S. apiospermum): 32 mg/L (≈ 65.6 µM)
- MIC S. apiospermum 98-38 (S. apiospermum): 16 mg/L (≈ 32.8 µM)
- MIC S. apiospermum 98-89 (S. apiospermum): 0.5 mg/L (≈ 1.03 µM)
- MIC0 A. flavus ATCC 204304 (A. flavus ATCC 204304): 1.76 µg/mL
- MIC0 Blastomyces dermatitidis 04-2167 (Blastomyces dermatitidis): 0.06 µg/mL
- MIC0 Blastomyces dermatitidis 04-2508 (Blastomyces dermatitidis): 0.06 µg/mL
- MIC0 Blastomyces dermatitidis 04-2915 (Blastomyces dermatitidis): 0.06 µg/mL
- MIC0 Blastomyces dermatitidis 05-106 (Blastomyces dermatitidis): 0.06 µg/mL
- MIC0 Blastomyces dermatitidis 05-186 (Blastomyces dermatitidis): 0.06 µg/mL
- MIC0 Blastomyces dermatitidis 05-1391 (Blastomyces dermatitidis): 0.06 µg/mL
- MIC0 Blastomyces dermatitidis 05-1707 (Blastomyces dermatitidis): ≦0.015 μg/mL
- MIC0 Blastomyces dermatitidis 05-1820 (Blastomyces dermatitidis): 0.03 µg/mL
- MIC0 Blastomyces dermatitidis 05-1829 (Blastomyces dermatitidis): 0.06 µg/mL
- MIC0 Blastomyces dermatitidis 05-2020 (Blastomyces dermatitidis): 0.06 µg/mL
- MIC0 Blastomyces dermatitidis R-3529 (Blastomyces dermatitidis): 0.03 µg/mL
- MIC0 Blastomyces dermatitidis R-35629 (Blastomyces dermatitidis): 0.06 µg/mL
- MIC B. dermatitidis Gu (Blastomyces dermatitidis): >12.5 mg/L
- MIC B. dermatitidis Kr (Blastomyces dermatitidis): >12.5 mg/L
- MIC B. dermatitidis V (Blastomyces dermatitidis): >12.5 mg/L
- MIC F. solani 96-1 (Fusarium solani): 8 to 16 mg/L

Compound: CC[C@H]1O[C@@H](/C(C)=C/[C@H](C)/C=C/[C@H]2[C@@H](C)[C@@H]2/C=C/[C@@H]2O[C@H](CC(N)=O)C[C@H](N(C)C)[C@H]2O)CC=C1C [I-hh, (5S,6R)-5-(dimethylamino)polyangiamide]
- MIC0 A. fumigatus ATCC 204305 (A. fumigatus ATCC 204305): 1 µg/mL
- MIC0 Ef (Epidermophyton floccosum): 2.82 µg/mL
- MIC0 Tm [1]: 2.82 µg/mL
- MIC C. albicans 24433 (Candida albicans): 32 mg/L (≈ 63.9 µM)
- MIC C. albicans 90028 (Candida albicans): 32 mg/L (≈ 63.9 µM)
- MIC C. neoformans 97-14 (Cryptococcus neoformans): 1 mg/L (≈ 2 µM)
- MIC C. neoformans 11239 (Cryptococcus neoformans): 1 mg/L (≈ 2 µM)
- MIC C. neoformans 11240 (Cryptococcus neoformans): 1 mg/L (≈ 2 µM)
- MIC0 Ti [2]: 3.17 µg/mL
- MIC0 Tr (Trichophyton rubrum): 2.51 µg/mL
- MIC0 Mc (Microsporum canis): 0.7 µg/mL
- MIC S. apiospermum 94-54 (S. apiospermum): 32 mg/L (≈ 63.9 µM)
- MIC S. apiospermum 98-38 (S. apiospermum): 32 mg/L (≈ 63.9 µM)
- MIC S. apiospermum 98-89 (S. apiospermum): 1 to 2 mg/L
- MIC0 A. flavus ATCC 204304 (A. flavus ATCC 204304): 2 µg/mL
- MIC F. solani 96-1 (Fusarium solani): 16 mg/L (≈ 32 µM)
- MIC0 Mg (Microsporum gypseum): 1.25 µg/mL

Compound: CC[C@H]1O[C@@H](/C(C)=C/[C@H](C)/C=C/[C@H]2[C@@H](C)[C@@H]2/C=C/[C@@H]2O[C@H](CC(=O)O)C[C@H](N(C)CCO)[C@H]2O)CC=C1C [I-n, (5S,6R)-5-(N-(2-hydroxyethyl)-methylamino)-6-hydroxypolyangioic acid]
- MIC0 A. fumigatus ATCC 204305 (A. fumigatus ATCC 204305): 1.4 µg/mL
- MIC0 Ef (Epidermophyton floccosum): 2 µg/mL
- MIC0 Tm [1]: 8 µg/mL
- MIC C. albicans 24433 (Candida albicans): >32 mg/L
- MIC C. albicans 90028 (Candida albicans): >32 mg/L
- MIC C. neoformans 97-14 (Cryptococcus neoformans): 0.25 mg/L (≈ 0.47 µM)
- MIC C. neoformans 11239 (Cryptococcus neoformans): 0.125 to 0.25 mg/L
- MIC C. neoformans 11240 (Cryptococcus neoformans): 0.125 to 0.25 mg/L
- MIC0 Ti [2]: 1.25 µg/mL
- MIC0 Tr (Trichophyton rubrum): 2.51 µg/mL
- MIC0 Mc (Microsporum canis): 2.82 µg/mL
- MIC H. capsulatum G217B (Histoplasma capsulatum): <0.19 mg/L
- MIC H. capsulatum GS20 (Histoplasma capsulatum): <0.19 mg/L
- MIC S. apiospermum 94-54 (S. apiospermum): >16 mg/L
- MIC S. apiospermum 98-38 (S. apiospermum): >16 mg/L
- MIC S. apiospermum 98-89 (S. apiospermum): 0.125 to 0.25 mg/L
- MIC0 A. flavus ATCC 204304 (A. flavus ATCC 204304): 2 µg/mL
- MIC B. dermatitidis Gu (Blastomyces dermatitidis): 6.25 mg/L (≈ 11.8 µM)
- MIC B. dermatitidis Kr (Blastomyces dermatitidis): >12.5 mg/L
- MIC B. dermatitidis V (Blastomyces dermatitidis): >12.5 mg/L
- MIC F. solani 96-1 (Fusarium solani): >16 mg/L
- MIC0 Mg (Microsporum gypseum): 1.99 µg/mL

Compound: CC[C@H]1O[C@@H](/C(C)=C/[C@H](C)/C=C/[C@H]2[C@@H](C)[C@@H]2/C=C/[C@@H]2O[C@H](CC(=O)O)C[C@H](N(CC)CC)[C@H]2O)CC=C1C [I-z, (5S,6R)-5-(diethylamino)-6-hydroxypolyangioic acid]
- MIC0 A. fumigatus ATCC 204305 (A. fumigatus ATCC 204305): 2.1 µg/mL
- MIC0 Ef (Epidermophyton floccosum): 4 µg/mL
- MIC0 Tm [1]: 4 µg/mL
- MIC C. albicans 24433 (Candida albicans): >32 mg/L
- MIC C. albicans 90028 (Candida albicans): >32 mg/L
- MIC C. neoformans 97-14 (Cryptococcus neoformans): 0.5 to 1 mg/L
- MIC C. neoformans 11239 (Cryptococcus neoformans): 0.25 to 0.5 mg/L
- MIC C. neoformans 11240 (Cryptococcus neoformans): 0.5 mg/L (≈ 0.944 µM)
- MIC0 Ti [2]: 0.79 µg/mL
- MIC0 Tr (Trichophyton rubrum): 1.25 µg/mL
- MIC0 Mc (Microsporum canis): 2 µg/mL
- MIC H. capsulatum G217B (Histoplasma capsulatum): <0.19 mg/L
- MIC H. capsulatum GS20 (Histoplasma capsulatum): <0.19 mg/L
- MIC S. apiospermum 94-54 (S. apiospermum): >16 mg/L
- MIC S. apiospermum 98-38 (S. apiospermum): >16 mg/L
- MIC S. apiospermum 98-89 (S. apiospermum): 0.25 to 0.5 mg/L
- MIC0 A. flavus ATCC 204304 (A. flavus ATCC 204304): 2.2 µg/mL
- MIC B. dermatitidis Gu (Blastomyces dermatitidis): >12.5 mg/L
- MIC B. dermatitidis Kr (Blastomyces dermatitidis): >12.5 mg/L
- MIC B. dermatitidis V (Blastomyces dermatitidis): >12.5 mg/L
- MIC F. solani 96-1 (Fusarium solani): >16 mg/L
- MIC0 Mg (Microsporum gypseum): 1.58 µg/mL
